Laboratory results taken from PubChem BioAssay AID1918948 (Molecular Pharmacology Branch, DTP, NCI, 2023).

System: K-562 leukemia growth, % test/control
Experiment: Anticancer human tumor K-562 cell line growth inhibition;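 further: spheroids exposed to compounds for 7 days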;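 on viability, T/C: 100% = DMSO vehicle wells and lower values mean fewer viable cells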
Details: spheroids with HUVEC and MSC; for IC50: curve of first compound; for viability, T/C: stronger effect = lower value
How it was run: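 Multicellular complex spheroids of tumor cells with human endothelial cells (HUVEC) and mesenchymal stem cells; the LSD1 inhibitor iadademstat was combined with standard-of-care or investigational agents. Top concentration at or near clinical Cmax, half-log dilutions; final DMSO ≤0.25%.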

Work on `CC(C)CC(NC(=O)C(Cc1ccccc1)NC(=O)c1cnccn1)B(O)O` (stereo not given) + NC1CC1c1ccc(-c2cccc(O)c2)cc1 yielded an IC50 (second compound 0.1 µM) of 0.585 nM, an IC50 (second compound 0.316 µM) of 0.588 nM and an IC50 (second compound 1 µM) of 0.601 nM. It also gave an IC50 (second compound 3.16 µM) of 0.576 nM, an IC50 (second compound 10 µM) of 0.525 nM and a viability, T/C (second compound 0.1 µM, first compound 0.000316 µM) of 103%. For the same compound, the viability, T/C (second compound 0.1 µM, first compound 0.001 µM) was 3.66%, the viability, T/C (second compound 0.1 µM, first compound 0.00316 µM) was 0.7% and the viability, T/C (second compound 0.1 µM, first compound 0.01 µM) was 0.61%. The viability, T/C (second compound 0.1 µM, first compound 0.0316 µM) was 0.46%, the viability, T/C (second compound 0.1 µM, first compound 0.1 µM) was 0.42% and the viability, T/C (second compound 0.316 µM, first compound 0.000316 µM) was 105%. The viability, T/C (second compound 0.316 µM, first compound 0.001 µM) was 3.12%, the viability, T/C (second compound 0.316 µM, first compound 0.00316 µM) was 0.63% and the viability, T/C (second compound 0.316 µM, first compound 0.01 µM) was 0.53%. It also gave a viability, T/C (second compound 0.316 µM, first compound 0.0316 µM) of 0.48%, a viability, T/C (second compound 0.316 µM, first compound 0.1 µM) of 0.47% and a viability, T/C (second compound 1 µM, first compound 0.000316 µM) of 109%. It also gave a viability, T/C (second compound 1 µM, first compound 0.001 µM) of 3.33%, a viability, T/C (second compound 1 µM, first compound 0.00316 µM) of 0.63% and a viability, T/C (second compound 1 µM, first compound 0.01 µM) of 0.53%. It also gave a viability, T/C (second compound 1 µM, first compound 0.0316 µM) of 0.39%, a viability, T/C (second compound 1 µM, first compound 0.1 µM) of 0.56% and a viability, T/C (second compound 3.16 µM, first compound 0.000316 µM) of 102%. For the same compound, the viability, T/C (second compound 3.16 µM, first compound 0.001 µM) was 2.37%, the viability, T/C (second compound 3.16 µM, first compound 0.00316 µM) was 0.61% and the viability, T/C (second compound 3.16 µM, first compound 0.01 µM) was 0.46%. It also gave a viability, T/C (second compound 3.16 µM, first compound 0.0316 µM) of 0.43%, a viability, T/C (second compound 3.16 µM, first compound 0.1 µM) of 0.44% and a viability, T/C (second compound 10 µM, first compound 0.000316 µM) of 87.7%. For the same compound, the viability, T/C (second compound 10 µM, first compound 0.001 µM) was 2.01%, the viability, T/C (second compound 10 µM, first compound 0.00316 µM) was 0.5% and the viability, T/C (second compound 10 µM, first compound 0.01 µM) was 0.46%. It also gave a viability, T/C (second compound 10 µM, first compound 0.0316 µM) of 0.43% and a viability, T/C (second compound 10 µM, first compound 0.1 µM) of 0.39%.
Work on `Nc1ccn(C2OC(CO)C(O)C2(F)F)c(=O)n1` (stereo not given) + NC1CC1c1ccc(-c2cccc(O)c2)cc1 yielded an IC50 (second compound 0.1 µM) of 9.42 nM, an IC50 (second compound 0.316 µM) of 8.17 nM and an IC50 (second compound 1 µM) of 7.91 nM. It also gave an IC50 (second compound 3.16 µM) of 6.77 nM, an IC50 (second compound 10 µM) of 5.86 nM and a viability, T/C (second compound 0.1 µM, first compound 0.000949 µM) of 105%. For the same compound, the viability, T/C (second compound 0.1 µM, first compound 0.003 µM) was 99.8%, the viability, T/C (second compound 0.1 µM, first compound 0.00949 µM) was 49.8% and the viability, T/C (second compound 0.1 µM, first compound 0.03 µM) was 12.8%. The viability, T/C (second compound 0.1 µM, first compound 0.0949 µM) was 10.7%, the viability, T/C (second compound 0.1 µM, first compound 0.3 µM) was 11.8% and the viability, T/C (second compound 0.316 µM, first compound 0.000949 µM) was 107%. The viability, T/C (second compound 0.316 µM, first compound 0.003 µM) was 102%, the viability, T/C (second compound 0.316 µM, first compound 0.00949 µM) was 42.1% and the viability, T/C (second compound 0.316 µM, first compound 0.03 µM) was 10.5%. It also gave a viability, T/C (second compound 0.316 µM, first compound 0.0949 µM) of 8.16%, a viability, T/C (second compound 0.316 µM, first compound 0.3 µM) of 8.05% and a viability, T/C (second compound 1 µM, first compound 0.000949 µM) of 106%. The viability, T/C (second compound 1 µM, first compound 0.003 µM) was 102%, the viability, T/C (second compound 1 µM, first compound 0.00949 µM) was 40.2% and the viability, T/C (second compound 1 µM, first compound 0.03 µM) was 7.41%. It also gave a viability, T/C (second compound 1 µM, first compound 0.0949 µM) of 7.12%, a viability, T/C (second compound 1 µM, first compound 0.3 µM) of 7.2% and a viability, T/C (second compound 3.16 µM, first compound 0.000949 µM) of 103%. It also gave a viability, T/C (second compound 3.16 µM, first compound 0.003 µM) of 101%, a viability, T/C (second compound 3.16 µM, first compound 0.00949 µM) of 29% and a viability, T/C (second compound 3.16 µM, first compound 0.03 µM) of 6.83%. For the same compound, the viability, T/C (second compound 3.16 µM, first compound 0.0949 µM) was 6.72%, the viability, T/C (second compound 3.16 µM, first compound 0.3 µM) was 7.82% and the viability, T/C (second compound 10 µM, first compound 0.000949 µM) was 100%. The viability, T/C (second compound 10 µM, first compound 0.003 µM) was 93.2%, the viability, T/C (second compound 10 µM, first compound 0.00949 µM) was 19% and the viability, T/C (second compound 10 µM, first compound 0.03 µM) was 5.75%. The viability, T/C (second compound 10 µM, first compound 0.0949 µM) was 6.04% and the viability, T/C (second compound 10 µM, first compound 0.3 µM) was 7.9%.
